Measured values: ChEMBL document CHEMBL1122358, “Synthesis and central dopaminergic activities of (+/-)-hexahydro-7H-indolo[3,4-gh][1,4]benzoxazine derivatives [(+/-)-9-oxaergolines]” (J Med Chem, 1983)

Experiments:
[1] = species on record: Rattus norvegicus; test: Minimum effective dose required to induce rotations in rats with unilateral lesion in the nigrostriatal pathway; type: functional; details: read-out: MED
[2] = tested on: Canis familiaris; test: Minimum effective dose (sc) to induce emesis in male or female Beagle dogs; type: functional; details: Canis lupus familiaris, read-out: MED
[3] = species on record: Rattus norvegicus; test: Minimum effective dose required to produce stereotypies in rats; type: functional; details: read-out: MED
[4] = target: Dopamine receptor (Bos taurus, UniProt Q95136+P20288); test: In vitro binding affinity towards dopamine receptor was determined in bovine anterior pituitary membrane using [3H]dihydroergocriptine as the radioligand; type: cell membranes
[5] = tested on: Rattus norvegicus; test: Inhibitory activity against plasma prolactin level in male Sprague-Dawley rats after peroral administration (5mg/Kg), activity expressed as mean duration for submaximal inhibition; type: functional
[6] = species on record: Rattus norvegicus; test: Inhibitory activity against prolactin release in rat anterior pituitary cells; type: functional, cell-based; details: Pituitary gland cell
[7] = species on record: Rattus norvegicus; test: Minimum effective dose required to decrease striatal DA turnover in rats; type: functional; details: read-out: MED
[8] = target: Dopamine receptor; test: In vitro binding affinity towards dopamine receptor was determined in rat striatal membrane using [3H]spiroperidol as the radioligand; type: cell membranes, Striatum
[9] = Lethal dose in male mice (administered ip), activity expressed as LD50 values.; type: toxicity, organism-based; details: mouse, in vivo
[10] = tested on: Rattus norvegicus; test: Inhibitory activity against plasma prolactin level in male Sprague-Dawley rats after peroral administration (5mg/Kg), activity expressed as mean duration for submaximal inhibition; Duration 3-6h; type: functional
[11] = tested on: Rattus norvegicus; test: Inhibitory activity against plasma prolactin level in male Sprague-Dawley rats after peroral administration (5mg/Kg), activity expressed as mean duration for submaximal inhibition; Duration 4-8h; type: functional
[12] = tested on: Rattus norvegicus; test: Inhibitory activity against plasma prolactin level in male Sprague-Dawley rats after peroral administration (5mg/Kg), activity expressed as mean duration for submaximal inhibition; Duration 3-4h; type: functional

Row | SMILES | minimal effective dose [1] | minimal effective dose [2] | minimal effective dose [3] | IC50 [4] | Duration [5] | IC50 [6] | minimal effective dose [7] | IC50 [8] | LD50 [9] | Duration [10] | Duration [11] | Duration [12]
1 | c1cc2c3c(c[nH]c3c1)C[C@H]1NCCO[C@H]21 | 0.5 mg/kg | > 0.5 mg/kg | 5 mg/kg | 7000 nM | 3 h | 300 nM | 1 mg/kg | 5000 nM | 150 mg/kg |  |  | 
2 | CN1CCO[C@@H]2c3cccc4[nH]c(Br)c(c34)C[C@H]21 | 1 mg/kg | 0.5 mg/kg | 20 mg/kg | 3000 nM |  | 100 nM | 1 mg/kg | 1000 nM | 35 mg/kg | 3 h |  | 
3 | CCCN1CCO[C@@H]2c3cccc4c3[C@@H](CN4)C[C@H]21 | 0.1 mg/kg | 0.1 mg/kg | 0.1 mg/kg | 300 nM | >12 h | 0.1 nM | 0.1 mg/kg | 600 nM | 150 mg/kg |  |  | 
4 | CN1CCO[C@@H]2c3cccc4[nH]cc(c34)C[C@H]21 | 0.2 mg/kg | 0.1 mg/kg | 0.5 mg/kg | 2500 nM |  | 17 nM | 0.1 mg/kg | 800 nM |  |  | 4 h | 
5 | CCCN1CCO[C@@H]2c3cccc4[nH]cc(c34)C[C@H]21 | 0.01 mg/kg | 0.01 mg/kg | 0.1 mg/kg | 40 nM | >22 h | 0.06 nM | 0.05 mg/kg | 70 nM | 150 mg/kg |  |  | 
6 | CCCN1CCO[C@@H]2c3cccc4[nH]c(Br)c(c34)C[C@H]21 | 0.2 mg/kg | > 0.5 mg/kg | 0.2 mg/kg | 500 nM | >12 h | 0.2 nM | 0.5 mg/kg | 250 nM | > 200 mg/kg |  |  | 
7 | CN1CCO[C@@H]2c3cccc4c3c(cn4C)C[C@H]21 | 2 mg/kg | 1 mg/kg | 20 mg/kg | 4800 nM |  | > 10000 nM | 10 mg/kg | 4500 nM | > 200 mg/kg |  |  | 3 h
8 | CCCN1C[C@H](CSC)C[C@@H]2c3cccc4[nH]cc(c34)C[C@H]21.CS(=O)(=O)O [PERGOLIDE MESYLATE] | 0.02 mg/kg | 0.05 mg/kg | 0.1 mg/kg |  | >22 h | 0.07 nM | 0.05 mg/kg |  | 100 mg/kg |  |  | 
